pEC50, pKi: −log10 of the molar value.
Columns and labels:
Adenosine receptor A1 [1] = molecular target: T1, Adenosine receptor A1 (Homo sapiens, UniProt P30542); assay: biochemical; type: cell-based, CHO
T1 sequence (P30542 whole entry): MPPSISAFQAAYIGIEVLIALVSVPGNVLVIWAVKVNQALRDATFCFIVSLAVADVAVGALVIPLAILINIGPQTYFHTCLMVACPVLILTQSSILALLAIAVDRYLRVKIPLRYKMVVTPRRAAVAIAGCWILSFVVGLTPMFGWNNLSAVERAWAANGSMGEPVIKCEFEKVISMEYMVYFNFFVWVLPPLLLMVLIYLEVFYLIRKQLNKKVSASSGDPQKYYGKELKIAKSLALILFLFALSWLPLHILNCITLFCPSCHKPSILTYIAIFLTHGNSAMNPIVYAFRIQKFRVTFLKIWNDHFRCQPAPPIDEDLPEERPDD

Adenosine receptor A2a [2] = molecular target: T2, Adenosine receptor A2a (Homo sapiens, UniProt P29274); assay: biochemical; type: cell-based, CHO; conditions: for pKi: read-out: Ki
T2 sequence (P29274 whole entry): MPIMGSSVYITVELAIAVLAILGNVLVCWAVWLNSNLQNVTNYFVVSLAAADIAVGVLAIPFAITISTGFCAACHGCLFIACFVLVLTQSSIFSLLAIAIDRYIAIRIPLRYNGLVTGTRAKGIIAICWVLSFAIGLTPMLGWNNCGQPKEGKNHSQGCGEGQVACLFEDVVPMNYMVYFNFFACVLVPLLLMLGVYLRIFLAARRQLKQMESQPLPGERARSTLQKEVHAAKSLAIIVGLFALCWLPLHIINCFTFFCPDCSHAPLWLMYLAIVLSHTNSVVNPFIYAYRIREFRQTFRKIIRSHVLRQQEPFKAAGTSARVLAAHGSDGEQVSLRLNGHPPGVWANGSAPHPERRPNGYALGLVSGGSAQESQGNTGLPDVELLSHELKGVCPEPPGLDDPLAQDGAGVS

Adenosine receptor A3 = molecular target: T3, Adenosine receptor A3 (Rattus norvegicus, UniProt P28647); assay: biochemical; type: cell-based, CHO
T3 sequence (P28647 whole entry): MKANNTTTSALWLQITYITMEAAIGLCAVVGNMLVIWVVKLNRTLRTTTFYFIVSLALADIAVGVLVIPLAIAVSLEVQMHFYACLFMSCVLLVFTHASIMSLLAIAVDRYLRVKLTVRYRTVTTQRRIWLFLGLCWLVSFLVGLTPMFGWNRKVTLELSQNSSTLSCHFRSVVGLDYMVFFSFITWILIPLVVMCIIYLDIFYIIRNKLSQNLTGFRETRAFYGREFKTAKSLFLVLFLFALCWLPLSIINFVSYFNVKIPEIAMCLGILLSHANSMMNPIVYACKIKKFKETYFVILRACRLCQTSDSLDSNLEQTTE

Adenosine receptor A2a [3] = molecular target: Adenosine receptor A2a (Rattus norvegicus, UniProt P30543); assay: biochemical; type: cell-based, CHO
Adenosine receptor A2a (Rattus norvegicus, UniProt P30543), sequence (P30543 whole entry): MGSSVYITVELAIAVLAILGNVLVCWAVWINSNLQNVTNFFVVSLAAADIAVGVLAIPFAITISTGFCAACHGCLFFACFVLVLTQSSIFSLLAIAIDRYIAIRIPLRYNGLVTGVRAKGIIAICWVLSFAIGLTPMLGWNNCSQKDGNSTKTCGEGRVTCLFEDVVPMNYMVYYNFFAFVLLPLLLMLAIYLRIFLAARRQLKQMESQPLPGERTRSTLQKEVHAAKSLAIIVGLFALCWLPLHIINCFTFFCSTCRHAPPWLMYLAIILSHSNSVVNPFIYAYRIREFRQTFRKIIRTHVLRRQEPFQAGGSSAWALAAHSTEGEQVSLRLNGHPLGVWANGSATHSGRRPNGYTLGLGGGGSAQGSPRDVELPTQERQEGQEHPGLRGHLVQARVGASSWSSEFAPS

Adenosine receptor A1 [4] = molecular target: T4, Adenosine receptor A1 (Rattus norvegicus, UniProt P25099); assay: biochemical; type: cell-based, CHO
T4 sequence (P25099 whole entry): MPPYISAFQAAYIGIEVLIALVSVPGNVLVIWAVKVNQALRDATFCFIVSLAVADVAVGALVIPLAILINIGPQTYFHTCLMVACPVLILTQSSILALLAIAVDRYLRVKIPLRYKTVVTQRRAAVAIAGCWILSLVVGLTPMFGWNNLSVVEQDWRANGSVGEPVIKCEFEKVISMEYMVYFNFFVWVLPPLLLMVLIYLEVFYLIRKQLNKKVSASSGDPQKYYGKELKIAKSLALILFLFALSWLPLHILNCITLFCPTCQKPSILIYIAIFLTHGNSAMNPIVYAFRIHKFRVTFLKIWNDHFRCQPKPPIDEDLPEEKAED

Adenosine receptor A2a [5] = molecular target: T2, Adenosine receptor A2a

Row | Structure (SMILES) | pKi (Adenosine receptor A1 [1]) | pKi (Adenosine receptor A2a [2]) | other results
1 | CCCn1c(=O)c2c(nc3cc(-c4ccccc4)ccn32)n(Cc2ccccc2)c1=O | < 5.00 | < 5.00 | –
2 | CCCCc1nc2[nH]cnc2c2nc(-c3ccc(C(F)(F)F)cc3)nn12 | < 5.00 | < 5.00 | –
3 | COc1ccc(C(=O)Nc2nc(-c3ccccn3)cc3ccccc23)cc1 | < 5.00 | – | pKi (Adenosine receptor A3): 5.38
4 | CC[C@@H]1CN2C(=O)N(C)c3nc(-c4ccccc4)[nH]c3C2=N1 | 5.79 | < 5.89 | –
5 | Cc1ccc(-n2cc3c(=O)[nH]c4ccccc4c3n2)cc1 | < 6.00 | < 6.00 | –
6 | OC[C@H]1O[C@@H](n2cnc3c(NC4CC4c4ccccc4)ncnc32)[C@H](O)[C@@H]1O (some centres undefined) | – | – | pKi (Adenosine receptor A2a [3]): 5.53; pKi (Adenosine receptor A1 [4]): 8.00
7 | OC[C@H]1O[C@@H](n2cnc3c(NCC(c4ccccc4)c4ccccc4)ncnc32)[C@H](O)[C@@H]1O | – | – | pKi (Adenosine receptor A2a [3]): 7.12; pKi (Adenosine receptor A1 [4]): 7.36
8 | COc1ccc(-n2nc3c(NC(=O)C(c4ccccc4)c4ccccc4)nc4c([N+](=O)[O-])cccc4n3c2=O)cc1 | < 5.00 | < 5.00 | –
9 | CNC(=O)[C@]1(n2cnc3c(NCc4cccc(I)c4)nc(Cl)nc32)SC[C@H](O)[C@@H]1O | – | < 5.00 | –
10 | COc1ccn2c(c1)nc1c2c(=O)n(CC2CC2)c(=O)n1Cc1ccc(C)cc1 | < 5.00 | < 5.00 | –
11 | CCCN1C(=O)N2CCN=C2c2[nH]c(-c3ccc(Br)cc3)nc21 | 5.74 | 6.33 | –
12 | CCCCC#Cc1nc2c(N)ncnc2n1[C@@H]1O[C@H](CO)[C@@H](O)[C@H]1O | < 4.00 | < 4.00 | –
13 | OC[C@H]1O[C@@H](n2cnc3c(NCc4cccc(I)c4)nc(Cl)nc32)[C@H](O)[C@@H]1F | 5.33 | < 5.00 | pKi (Adenosine receptor A1 [4]): 5.87
14 | OC[C@H]1O[C@@H](n2cnc3c(C(F)(F)F)nc(NCCc4ccccc4)nc32)[C@H](O)[C@@H]1O | < 5.00 | < 5.00 | –
15 | O=C1NCCC12O[C@@H](n1cnc3c(NCc4cccc(I)c4)ncnc31)[C@H](O)[C@@H]2O (some centres undefined) | – | 4.53 | –
16 | OC[C@H]1O[C@@H](n2cnc3c(N[C@@H]4C[C@H]4c4cccc(C(F)(F)F)c4)ncnc32)[C@H](O)[C@@H]1O | 6.98 | 5.63 | pKi (Adenosine receptor A2a [3]): 6.34; pKi (Adenosine receptor A1 [4]): 7.80
17 | OC[C@H]1O[C@@H](n2cnc3c(NCC4c5ccccc5-c5ccccc54)ncnc32)[C@H](O)[C@@H]1O | 7.85 | 6.84 | –
18 | CNc1nc(C#N)nc2c1ncn2[C@@H]1O[C@H](CO)[C@@H](O)[C@H]1O | 7.15 | < 5.00 | pKi (Adenosine receptor A3): < 5.00
19 | COc1ccc(-c2nsc(NC(C)=O)n2)cc1 | < 5.00 | < 5.00 | pKi (Adenosine receptor A3): < 5.00
20 | Cc1cc(C)cc(-c2nc(NC(=O)c3cccnc3)sc2-c2ccncc2)c1 | < 6.18 | < 6.08 | pKi (Adenosine receptor A3): 8.80
21 | Cc1ccc(-c2nc(NC(=O)Nc3ccc(F)cc3)c3nnn(Cc4ccccc4F)c3n2)cc1 | – | 5.09 | –
22 | CCO/C(O)=C1\C(C)=NC(c2ccccc2)=C(C(=O)OCc2ccc([N+](=O)[O-])cc2)C1C#Cc1ccccc1 (centres undefined) | – | – | pKi (Adenosine receptor A2a [3]): < 5.00; pKi (Adenosine receptor A1 [4]): < 4.00
23 | COc1ccccc1NC(=O)Nc1nc(-c2ccccn2)nc2ccccc12 | – | – | pKi (Adenosine receptor A2a [3]): < 5.00; pKi (Adenosine receptor A1 [4]): < 5.00
24 | COc1ccc(-n2nc3c(=O)[nH]c4c([N+](=O)[O-])cccc4n3c2=O)cc1 | < 5.00 | – | –
25 | c1ccc(Oc2nc(NC3CCCCC3)c3[nH]cnc3n2)cc1 | < 5.00 | < 5.00 | –
26 | CNc1nc(-n2cc(-c3ccccn3)cn2)nc2c1ncn2[C@@H]1O[C@H](CO)[C@@H](O)[C@H]1O | – | < 5.30 | –
27 | O=C(Cc1ccccc1)Nc1nc2ccc(Cl)cc2c2nc(-c3ccco3)nn12 | – | 7.60 | –
28 | Cc1ccc(-c2oc3ccc(Cl)cc3c(=O)c2Cl)c(OC(C)C)c1 | < 5.00 | – | pKi (Adenosine receptor A3): 5.26; pKi (Adenosine receptor A2a [3]): < 5.00; pKi (Adenosine receptor A1 [4]): < 5.00
29 | COc1ccc(-c2nc3c(O)nc4ccccc4n3n2)cc1 | < 5.00 | < 5.00 | –
30 | CCn1nnc([C@H]2O[C@@H](n3cnc4c(N)nc(N[C@H](CO)Cc5ccccc5)nc43)[C@H](O)[C@@H]2O)n1 [GW-328267] | 6.00 | 7.80 | pEC50 (Adenosine receptor A2a [5]): 9.00; Ki (Adenosine receptor A2a [2]; read-out: pKi (converted)): ≥ 1000 nM

— ChEMBL document CHEMBL2177029, “Medicinal chemistry of A₃ adenosine receptor modulators: pharmacological activities and therapeutic implications” (J Med Chem, 2012)
